Data published in ChEMBL document CHEMBL4613253, “Effective Application of Metabolite Profiling in Drug Design and Discovery” (J Med Chem, 2020).

Tests used:
[1] = biological target: cGMP-dependent 3',5'-cyclic phosphodiesterase (Homo sapiens, UniProt O00408); experiment: Inhibition of PDE2 (unknown origin)
[2] = AUC(0 to infinity) in human carrying CYP3A5*3/*3 allele at 300 mg, po measured up to 32 hrs; format: ADME, organism-based; set-up: dose 300 mg, route oral, time infinity; conditions: in vivo
[3] = AUC(0 to infinity) in human carrying CYP3A5*1/*1 allele at 300 mg, po measured up to 32 hrs; format: ADME, organism-based; set-up: dose 300 mg, route oral, time infinity; conditions: in vivo
[4] = AUC(0 to infinity) in human carrying CYP3A5*1/*3 allele at 300 mg, po measured up to 32 hrs; format: ADME, organism-based; set-up: dose 300 mg, route oral, time infinity; conditions: in vivo
[5] = Drug metabolism in human liver microsomes assessed as peak area for GSH-EE-quinone conjugate formation at 10 uM measured after 60 mins in presence of NADPH by LC-MS/MS analysis; format: ADME, Microsome; conditions: 1 h
[6] = Half life in dog plasma at 1 uM incubated for 0 to 120 mins by LC-MS/MS method; format: ADME, cell-free, Canis lupus familiaris
[7] = Half life in human plasma at 1 uM incubated for 0 to 120 mins by LC-MS/MS method; format: ADME, cell-free
[8] = Half life in monkey plasma at 1 uM incubated for 0 to 120 mins by LC-MS/MS method; format: ADME, cell-free, Macaca mulatta; conditions: rhesus monkey
[9] = Half life in rat plasma at 1 uM incubated for 0 to 120 mins by LC-MS/MS method; format: ADME, cell-free
[10] = Volume of distribution at steady state in po or iv dosed rat; format: ADME, organism-based; conditions: in vivo, read-out: Vdss
[11] = Half life in guinea pig plasma at 1 uM incubated for 0 to 120 mins by LC-MS/MS method; format: ADME, cell-free, Cavia porcellus
[12] = Oral bioavailability in rat; format: ADME, organism-based; conditions: in vivo
[13] = Protein binding in po or iv dosed rat plasma assessed as free fraction; format: ADME, organism-based
[14] = Plasma clearance in po or iv dosed rat plasma; format: ADME, organism-based
[15] = Elimination half life in po or iv dosed rat; format: ADME, organism-based; conditions: in vivo, read-out: beta t1/2 (converted)
[16] = biological target: T1, Glucose-dependent insulinotropic receptor (Homo sapiens, UniProt Q8TDV5); experiment: Agonist activity at human GPR119 expressed in HEK293 cells preincubated for 30 mins followed by d2 cAMP addition and measured after 60 mins by HTRF assay; format: functional, cell-based
T1 sequence (Q8TDV5 whole entry): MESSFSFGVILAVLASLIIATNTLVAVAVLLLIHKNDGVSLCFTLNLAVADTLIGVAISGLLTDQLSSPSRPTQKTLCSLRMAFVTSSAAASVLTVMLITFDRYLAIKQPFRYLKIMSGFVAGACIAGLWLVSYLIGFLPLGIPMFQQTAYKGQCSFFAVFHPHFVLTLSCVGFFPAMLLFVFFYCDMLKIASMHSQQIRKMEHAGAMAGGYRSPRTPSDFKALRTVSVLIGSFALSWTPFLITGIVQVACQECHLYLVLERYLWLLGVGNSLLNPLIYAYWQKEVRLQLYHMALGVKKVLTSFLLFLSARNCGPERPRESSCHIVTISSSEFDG

[17] = Half life in dog liver microsomes at 1 uM measured up to 60 mins by LC-MS/MS analysis; format: ADME, Canis lupus familiaris, Microsome
[18] = Plasma clearance in Beagle dog at 1 mg/kg, iv measured up to 24 hrs by LC-MS/MS analysis; format: ADME, organism-based, Canis lupus familiaris
[19] = Plasma clearance in Wistar-Han rat at 1 mg/kg, iv measured up to 24 hrs by LC-MS/MS analysis; format: ADME, organism-based
[20] = Half life in human liver microsomes at 1 uM measured up to 60 mins by LC-MS/MS analysis; format: ADME, Microsome
[21] = Half life in rat liver microsomes at 1 uM measured up to 60 mins by LC-MS/MS analysis; format: ADME, Microsome

Chain of cGMP-dependent 3',5'-cyclic phosphodiesterase (O00408 whole entry): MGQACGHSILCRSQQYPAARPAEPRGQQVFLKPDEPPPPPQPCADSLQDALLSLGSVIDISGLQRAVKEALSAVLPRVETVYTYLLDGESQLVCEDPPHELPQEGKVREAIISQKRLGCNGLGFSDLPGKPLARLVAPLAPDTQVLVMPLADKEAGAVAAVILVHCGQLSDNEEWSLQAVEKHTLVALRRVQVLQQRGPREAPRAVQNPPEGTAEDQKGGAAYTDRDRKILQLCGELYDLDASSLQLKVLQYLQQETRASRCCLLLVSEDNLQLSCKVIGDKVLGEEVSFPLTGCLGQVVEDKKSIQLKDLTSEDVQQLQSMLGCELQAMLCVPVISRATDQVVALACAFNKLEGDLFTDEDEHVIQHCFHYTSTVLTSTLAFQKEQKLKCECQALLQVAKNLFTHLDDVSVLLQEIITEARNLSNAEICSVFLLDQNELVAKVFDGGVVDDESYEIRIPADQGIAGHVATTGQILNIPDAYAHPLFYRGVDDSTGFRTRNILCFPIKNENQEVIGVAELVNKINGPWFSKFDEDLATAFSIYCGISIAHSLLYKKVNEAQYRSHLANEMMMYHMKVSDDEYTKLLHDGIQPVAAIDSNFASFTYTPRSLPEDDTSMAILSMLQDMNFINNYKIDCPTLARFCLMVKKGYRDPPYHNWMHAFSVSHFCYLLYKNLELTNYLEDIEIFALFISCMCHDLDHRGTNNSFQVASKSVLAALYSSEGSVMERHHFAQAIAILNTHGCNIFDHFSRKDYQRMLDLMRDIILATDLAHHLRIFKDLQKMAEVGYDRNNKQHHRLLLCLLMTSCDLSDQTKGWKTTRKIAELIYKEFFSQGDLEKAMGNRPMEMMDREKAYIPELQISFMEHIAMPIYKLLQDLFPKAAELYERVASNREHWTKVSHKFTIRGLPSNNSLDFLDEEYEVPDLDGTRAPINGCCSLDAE

## CCc1ccc(-c2c(-c3nn(C)c4ncnc(N5CC(O)C5)c34)cnn2C)cc1
[1]
  IC50: 10 nM

## Cc1nnc(C(C)C)n1[C@@H]1C[C@H]2CC[C@@H](C1)N2CC[C@H](NC(=O)C1CCC(F)(F)CC1)c1ccccc1 [MARAVIROC]
[2]
  AUC(0-inf): 2100 ng·h/mL
[3]
  AUC(0-inf): 1240 ng·h/mL
[4]
  AUC(0-inf): 1760 ng·h/mL

## C[C@H](Cc1ccc(F)c(F)c1)n1c(-c2ncccc2O)nc2ccnc(C(F)(F)F)c2c1=O
[5]
  Activity: 3000

## CC(O)c1ccc(-c2c(-c3nn(C)c4ncnc(N5CCC5)c34)cnn2C)cc1 (centres undefined)
[1]
  IC50: 42 nM

## CC(C)OC(=O)N1CCN(c2ncc(-c3ccc4nccnc4c3)cc2C#N)CC1
[6]
  half-life at 1 µM: > 6.17 h
[7]
  half-life at 1 µM: > 6.17 h
[8]
  half-life at 1 µM: > 6.17 h

## C[C@H](Cc1ccccc1)n1c(-c2ccccc2O)nc2ccnc(C(F)(F)F)c2c1=O
[5]
  Activity: 166810

## Cc1cc(-c2ccc(N3CCC(c4nc(C(C)C)no4)CC3)nc2)c(C#N)cc1C#N
[9]
  half-life at 1 µM: > 6.17 h
[10]
  Vd: 3 L/kg
[11]
  half-life at 1 µM: > 6.17 h
[12]
  bioavailability: 70%
[7]
  half-life at 1 µM: > 6.17 h
[13]
  fraction unbound: 0.03
[14]
  clearance: 13.4 mL/min/kg
[15]
  half-life: 2.6 h
[16]
  EC50: 1.7 nM

## COc1ccc(-c2cc(=O)[nH]c(=S)n2CCO)c(OC)c1
[17]
  half-life at 1 µM: 0.187 h
[18]
  clearance: 12 mL/min/kg
[19]
  clearance: 73 mL/min/kg
[20]
  half-life at 1 µM: > 2 h
[21]
  half-life at 1 µM: 8.6 min
